Earlier results, collected in patent publication US20080300304A1, “Ginger Fraction For Inhibiting Human Cyp Enzymes” (priority 2005, published 2008).

With `CC(C)c1c(C(=O)Nc2ccccc2)c(-c2ccccc2)c(-c2ccc(F)cc2)n1CC[C@@H](O)C[C@@H](O)CC(=O)O` [atorvastatin] as the compound, how does the “oral availability [%]” value read?
Its value is 12%.

For `COc1cc(N)c(Cl)cc1C(=O)NC1CCN(CCCOc2ccc(F)cc2)CC1OC` (stereo not drawn) [cisapride], which “oral availability [%]” value is on record?
The value was 38%.

Which “oral availability [%]” value does the source give for `CC(=O)O[C@@]12CO[C@@H]1C[C@H](O)[C@@]1(C)C(=O)[C@H](O)C3=C(C)[C@@H](OC(=O)[C@H](O)[C@@H](NC(=O)OC(C)(C)C)c4ccccc4)C[C@@](O)([C@@H](OC(=O)c4ccccc4)[C@H]21)C3(C)C` [docetaxel] here?
The value was 8%.

For `CCOC(=O)C1=C(C)NC(C)=C(C(=O)OC)C1c1cccc(Cl)c1Cl` (stereo not drawn) [felodipine], which “oral availability [%]” value is on record?
Its value is 15%.

With `CC[C@H](C)C(=O)O[C@H]1C[C@@H](C)C=C2C=C[C@H](C)[C@H](CC[C@@H]3C[C@@H](O)CC(=O)O3)[C@H]21` [lovastatin] as the compound, how does the “oral availability [%]” value read?
Its value is 4%.

Which “oral availability [%]” value does the source give for `CO[C@H]1/C=C/O[C@@]2(C)Oc3c(C)c(O)c4c(c3C2=O)C2=NC3(CCN(CC(C)C)CC3)NC2=C(NC(=O)/C(C)=C\C=C\[C@H](C)[C@H](O)[C@@H](C)[C@@H](O)[C@@H](C)[C@H](OC(C)=O)[C@@H]1C)C4=O` [rifabutin] here?
The value was 20%.

With `CO[C@H]1C[C@@H]2CC[C@@H](C)[C@@](O)(O2)C(=O)C(=O)N2CCCC[C@H]2C(=O)O[C@H]([C@H](C)C[C@@H]2CC[C@@H](O)[C@H](OC)C2)CC(=O)[C@H](C)/C=C(\C)[C@@H](O)[C@@H](OC)C(=O)[C@H](C)C[C@H](C)/C=C/C=C/C=C/1C` [sirolimus] as the compound, how does the “oral availability [%]” value read?
Its value is 15%.

With `C=CC[C@@H]1/C=C(\C)C[C@H](C)C[C@H](OC)[C@H]2O[C@@](O)(C(=O)C(=O)N3CCCC[C@H]3C(=O)O[C@H](/C(C)=C/[C@@H]3CC[C@@H](O)[C@H](OC)C3)[C@H](C)[C@@H](O)CC1=O)[C@H](C)C[C@@H]2OC` [tacrolimus] as the compound, how does the “oral availability [%]” value read?
The value was 16%.

For `C/C=C/C[C@@H](C)C(=O)[C@H]1C(=O)N[C@@H](C(C)C)C(=O)N(C)CC(=O)N(C)[C@@H](CC(C)C)C(=O)N[C@@H](C(C)C)C(=O)N(C)[C@@H](CC(C)C)C(=O)N[C@@H](C)C(=O)N[C@H](C)C(=O)N(C)[C@@H](CC(C)C)C(=O)N(C)[C@@H](CC(C)C)C(=O)N(C)[C@@H](C(C)C)C(=O)N1C` [valspodar], which “oral availability [%]” value is on record?
Its value is 34%.
